{"source": "patent US20260364186A1", "about": "“Chemical Conjugates, Compositions, and Methods of Preparation and Use Thereof” (Transfection Holdings Limited, priority 2022, published 2026)", "system": "NZM011, NZM009, NZM012, NZM022 and NZM077 cells", "experiment": "Flow cytometry uptake into metastatic melanoma lines (Example 11)", "assay_type": "cell-based, human", "settings": "200 nM, 30 minutes", "description": "FIG. 11: Uptake for compounds 124, 126, and 132 at 200 nM and 30 minute incubation with melanoma cell lines: NZM12 (NZM012) (BRAF V600E mutant metastatic melanoma, homozygous deletion CDKN2A and low invasive cell line), NZM77 (NZM077) (BRAF V600E mutant metastatic melanoma and missense NF1), NZM22 (NZM022) (BRAF G466A mutant metastatic melanoma, P53 241S/T mutant, NF1 non-frameshift insertion and PTEN epigenetic silencing). NZM9 (NZM009) (P53 179C/T mutant and homozygous silencing CDKN2A). NZM11 (NZM011) (BRAF V600E mutant metastatic melanoma and homozygous deletion CDKN2A), as positive control. Mean fluorescent intensities (MFI). 1,500-2,000 cells were obtained. Bars represent mean±SD. Results are from a single experiment done in triplicate. Cells were analysed by FACS.\nMethods: For screening, NZM011, NZM009, NZM012, NZM022 and NZM077 cells were suspended at 250 cells per μL in MEMα media and 200 μL was dispensed into 96 well plates. The cells were left to settle for 24 hours for NZM011, NZM012 and NZM077 and 48 hours for NZM009 and NZM022 at 37 °C, 5% O2, 5% CO2. Before addition to the cells, 10 μL of 10 mM stock solutions in DMSO of compounds 124, 126, and 132 were diluted with 1% FBS MEMα media to give a 200 nM solution.\nAfter the appropriate settle time, the media was removed from the 96 well plates and 200 μL of 200 nM conjugate solutions and DMSO control were dispensed to each well (in triplicate) and incubated for 30 minutes at 37 °C, 5% O2, 5% CO2. After 30 minutes, the media was removed and cells washed with PBS. Next, 100 μL of TrypLE trypsin (ThermoFisher Scientific) was added to each well and incubated for 5 minutes at 37 °C. After this, 150 μL of MEMα media (plus 1% FBS for NZM011, NZM012 and NZM077; plus 5% FBS for NZM009 and NZM022) were added. Cells were analysed by flow cytometry using a FACS biosort and FITC filter. Flow cytometry results represent the mean of the fluorescence intensities (in arbitrary units) measured for cells sorted in every sample.", "note": "Entries after “also recorded” stand apart in the source; their conditions may differ."}
{"smiles": "CC1=CC(C)=[N+]2C1=Cc1ccc(CCCn3cc(CCNC(=O)/C=C/NC(=O)[C@H](O)C(C)(C)CO)nn3)n1[B-]2(F)F", "note": "[Compound 124]", "values": [{"measurement": "uptake, in words", "value": "highest uptake levels; also recorded: consistent, selective and high level of uptake"}, {"measurement": "times greater uptake than conjugate 132", "setting": "five cell lines", "value": "1.5-3 times"}]}
